Laboratory results taken from US9079913B2, “Spiro-oxindole MDM2 antagonists” (The Regents of the University of Michigan, priority 2009, dated 2015).
Read-outs that look alike come from different tables or passages of the source.

How the values were obtained:
[1] = tested on: cancer cell lines with wild-type p53 / mutated or deleted p53 (ATCC); assay: Cell growth assay (WST-8), other cancer cell lines; type: cell-based
[2] = tested on: Isogenic HCT-116 colon cancer cell lines; assay: cells; type: cell-based;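 also: cells grown in 96-well plates in McCoy's 5A medium with 10% FBS, exposed to compound for 4 days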
Experimental: Cells were seeded in 96-well flat bottom cell culture plates at a density of 2−3×10^3 cells/well with compounds and incubated for 4 days.

[3] = target: recombinant human His-tagged MDM2 protein (residues 1-118) (Homo sapiens (Human), UniProt Q00987); assay: Fluorescence-polarization MDM2 binding assay;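 also: fluorescence polarization read after three hours of incubation in potassium phosphate buffer containing bovine gamma globulin and Triton X-100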
Chain of recombinant human His-tagged MDM2 protein (residues 1-118) (Q00987 1-118): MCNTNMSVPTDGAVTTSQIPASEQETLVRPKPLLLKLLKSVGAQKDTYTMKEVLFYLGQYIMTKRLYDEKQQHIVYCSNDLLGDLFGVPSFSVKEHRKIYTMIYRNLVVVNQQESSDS

[4] = Homo sapiens, LNCaP, Table 19C, LNCaP cells, read-out: Cell growth inhibition using WST assay, LNCaP IC50
[5] = Homo sapiens, PC-3, Table 19C, PC3 cells, read-out: Cell growth inhibition using WST assay, PC3 IC50
[6] = Homo sapiens, HCT-116, read-out: Cell growth inhibition using WST assay, HCT116 p53KO IC50, Table 19C, HCT116 p53KO
[7] = Homo sapiens, HCT-116, read-out: Cell growth inhibition using WST assay, HCT116 p53WT IC50, Table 19C, HCT116 p53WT
[8] = Table 19C, read-out: Bidning affinities to MDM2 as determined using FP assay IC50
[9] = Homo sapiens, LNCaP, Table 19D, LNCaP cells, read-out: LNCaP IC50
[10] = Homo sapiens, PC-3, Table 19D, PC3 cells, read-out: PC3 IC50
[11] = Homo sapiens, HCT-116, read-out: HCT116p53KO IC50, Table 19D, HCT116 p53KO
[12] = Homo sapiens, HCT-116, read-out: HCT116p53WT IC50, Table 19D, HCT116 p53WT
[13] = Table 19D, read-out: MDM2 Binding Affinities IC50
[14] = Homo sapiens, LNCaP, Table 19A, LNCAP cells, p53 wild-type, cell growth, read-out: LNCAP (p53 wild-type) IC50
[15] = Homo sapiens, PC-3, Table 19A, PC-3 cells, deleted p53, cell growth, read-out: PC-3 (deleted p53) IC50
[16] = Homo sapiens, HCT-116, read-out: HCT-116 (p53-/-) IC50, Table 19A, HCT-116 p53-/-, cell growth
[17] = Homo sapiens, HCT-116, read-out: HCT-116 (p53 wild-type) IC50, Table 19A, HCT-116 p53 wild-type, cell growth
[18] = Table 19A, FP binding assay, read-out: MDM2 IC50

| SMILES | IC50 [1, 4] [µM] | IC50 [1, 5] [µM] | IC50 [2, 6] [µM] | IC50 [2, 7] [µM] | IC50 [3, 8] [µM] | IC50 [1, 9] [µM] | IC50 [1, 10] [µM] | IC50 [2, 11] [µM] | IC50 [2, 12] [µM] | IC50 [3, 13] [µM] | other results |
| --- | --- | --- | --- | --- | --- | --- | --- | --- | --- | --- | --- |
| CN(C)C[C@@H](O)CCNC(=O)[C@@H]1N[C@H](CC(C)(C)C)[C@]2(C(=O)Nc3cc(Cl)c(F)cc32)[C@H]1c1ccc(F)c(Cl)c1 [MI-319-28] | < 5 | > 5 | > 5 | < 5 | < 5 |  |  |  |  |  |  |
| CN(CC[C@H](O)CO)C(=O)[C@@H]1N[C@H](CC(C)(C)C)[C@]2(C(=O)Nc3cc(Cl)c(F)cc32)[C@H]1c1cccc(Cl)c1 [MI-319-29] | > 10 | > 10 | > 10 | > 10 | > 5 |  |  |  |  |  |  |
| CNC[C@@H](O)CCNC(=O)[C@@H]1N[C@H](CC(C)(C)C)[C@]2(C(=O)Nc3cc(Cl)c(F)cc32)[C@H]1c1ccc(F)c(Cl)c1 [MI-319-30] | > 5 | > 10 | > 10 | > 10 | < 5 |  |  |  |  |  |  |
| CC(C)(C)C[C@H]1N[C@@H](C(=O)NCCN2CCN(C(=O)CO)CC2)[C@H](c2cccc(Cl)c2)[C@@]12C(=O)Nc1cc(Cl)c(F)cc12 [MI-319-33] | 1.4 ± 0.2 | 23.6 ± 5.5 | 25.3 ± 2.8 | 2.1 ± 0.2 | < 1 |  |  |  |  |  |  |
| CC(C)(C)C[C@H]1N[C@@H](C(=O)NCC[C@H](O)CO)[C@H](c2cncc(Cl)c2)[C@@]12C(=O)Nc1cc(Cl)c(F)cc12 [MI-319-34] | < 10 | > 30 | > 30 | 9.5 ± 2.1 | < 10 |  |  |  |  |  |  |
| CC(C)(C)C[C@H]1N[C@@H](C(=O)NCC[C@H](O)CO)[C@H](c2cc(Cl)ccn2)[C@@]12C(=O)Nc1cc(Cl)c(F)cc12 [MI-319-35] | 3.2 ± 0.3 | > 10 | > 10 | 4.8 ± 0.5 | < 10 |  |  |  |  |  |  |
| CC(C)(CCO)C[C@H]1N[C@@H](C(=O)NCC[C@H](O)CO)[C@H](c2cccc(Cl)c2)[C@@]12C(=O)Nc1cc(Cl)c(F)cc12 [MI-319-36] | 6.4 ± 1.4 | > 30 | > 30 | 12.2 ± 1.7 | < 5 |  |  |  |  |  |  |
| O=C(NCC[C@H](O)CO)[C@@H]1N[C@H](CC2(CCO)CCCC2)[C@]2(C(=O)Nc3cc(Cl)c(F)cc32)[C@H]1c1cccc(Cl)c1 [MI-319-37] | < 5 | > 30 | > 30 | < 10 | < 1 |  |  |  |  |  |  |
| O=C(NCC[C@H](O)CO)[C@H]1[C@H](c2cccc(Cl)c2)[C@@]2(C(=O)Nc3cc(Cl)c(F)cc32)[C@H]2CC3(CCCC3)CCN12 [MI-319-38] | > 5 | > 10 | > 10 | > 10 | > 3 |  |  |  |  |  |  |
| CC[C@H]1N[C@@H](C(=O)NCCN2CCOCC2)[C@H](c2cccc(Cl)c2)[C@@]12C(=O)Nc1cc(Cl)c(F)cc12 [MI-319-39] | > 3 | > 10 | > 10 | > 3 | > 10 |  |  |  |  |  |  |
| CC(C)(C)C[C@H]1N[C@@H](C(=O)NCC[C@H](O)CO)[C@H](c2ccc(F)c(Cl)c2)[C@@]12C(=O)Nc1cc(F)c(F)cc12 [MI-519-8] |  |  |  |  |  | < 5 | > 10 | > 10 | < 5 | < 3 |  |
| CC(C)(C)C[C@H]1N[C@@H](C(=O)NCC[C@H](O)CO)[C@H](c2cccc(Cl)c2)[C@@]12C(=O)Nc1cc(F)c(F)cc12 [MI-519-9] |  |  |  |  |  | < 3 | > 10 | > 10 | < 3 | < 3 |  |
| CN1[C@@H](C(=O)NCC[C@H](O)CO)[C@H](c2cccc(Cl)c2F)[C@@]2(C(=O)Nc3cc(F)c(F)cc32)[C@H]1CC(C)(C)C [MI-519-10-me] |  |  |  |  |  | > 1 | > 30 | > 30 | > 1 | < 10 |  |
| CC(C)(C)C[C@H]1N[C@@H](C(=O)NCC[C@H](O)CO)[C@H](c2cccc(Cl)c2F)[C@@]12C(=O)Nc1cc(F)c(F)cc12 [MI-519-10] |  |  |  |  |  | < 3 | > 10 | > 10 | < 3 | < 3 |  |
| CC(C)(C)C[C@H]1N[C@@H](C(=O)NCC[C@H](O)CO)[C@H](c2cccc(F)c2)[C@@]12C(=O)Nc1cc(F)c(F)cc12 [MI-519-11] |  |  |  |  |  | > 5 | > 10 | > 10 | > 5 | > 5 |  |
| CC(C)(C)C[C@H]1N[C@@H](C(=O)NCC[C@H](O)CO)[C@H](c2ccc(F)c(F)c2)[C@@]12C(=O)Nc1cc(F)c(F)cc12 [MI-519-12] |  |  |  |  |  | < 3 | > 10 | > 10 | < 3 | < 10 |  |
| CC(C)(C)C[C@H]1N[C@@H](C(=O)NCC[C@H](O)CO)[C@H](c2ccc(F)c(Cl)c2)[C@@]12C(=O)Nc1cc(F)ccc12 [MI-519-14] |  |  |  |  |  | < 5 | > 10 | > 10 | < 5 | < 1 |  |
| CN1[C@@H](C(=O)NCC[C@H](O)CO)[C@H](c2cccc(Cl)c2)[C@@]2(C(=O)Nc3cc(F)ccc32)[C@H]1CC(C)(C)C [MI-519-15-me] |  |  |  |  |  | 6.4 | > 10 | > 10 | 5.2 | < 5 |  |
| CC(C)(C)C[C@H]1N[C@@H](C(=O)NCC[C@H](O)CO)[C@H](c2cccc(Cl)c2)[C@@]12C(=O)Nc1cc(F)ccc12 [MI-519-15] |  |  |  |  |  | < 5 | > 10 | > 10 | < 3 | < 1 |  |
| CC(C)(C)C[C@H]1N[C@@H](CO)[C@H](c2cccc(Cl)c2)[C@@]12C(=O)Nc1cc(Cl)c(F)cc12 [MI-519-20] |  |  |  |  |  | 2.2 ± 0.2 | 9 ± 1.1 | 13.4 ± 0.8 | 1.9 ± 0.1 | < 5 |  |
| CCCN1CCN(CCNC(=O)[C@@H]2N[C@H](CC(C)(C)C)[C@]3(C(=O)Nc4cc(Cl)c(F)cc43)[C@H]2c2cccc(Cl)c2)CC1 [MI-519-21] |  |  |  |  |  | 1.5 ± 0.6 | 4.8 ± 0.4 | 5.8 ± 1.9 | 1.4 ± 0.5 | < 3 |  |
| CC(C)(C)C[C@H]1N[C@@H](C(=O)NCCC2CCC(O)C2)[C@H](c2cccc(Cl)c2)[C@@]12C(=O)Nc1cc(F)c(F)cc12 (stereo partly shown) [MI-519-25] |  |  |  |  |  | < 5 | > 10 | > 10 | < 3 | < 3 |  |
| CC(C)(C)C[C@H]1N[C@@H](C(=O)NCCC2CCC(O)C2)[C@H](c2cccc(Cl)c2)[C@@]12C(=O)Nc1cc(F)c(F)cc12 (stereo partly shown) [MI-519-26] |  |  |  |  |  |  |  |  |  | < 10 | IC50 ([1]; Table 19D, LNCaP cells, read-out: LNCaP IC50): < 5 µM; IC50 ([1]; Table 19D, PC3 cells, read-out: PC3 IC50): > 10 µM; IC50 ([2]; read-out: HCT116p53KO IC50, Table 19D, HCT116 p53KO): > 10 µM; IC50 ([2]; read-out: HCT116p53WT IC50, Table 19D, HCT116 p53WT): < 5 µM |
| CC(O)C(O)CCNC(=O)[C@@H]1N[C@H](CC(C)(C)C)[C@]2(C(=O)Nc3cc(Cl)c(F)cc32)[C@H]1c1cccc(Cl)c1 (stereo partly shown) [MI-519-30] |  |  |  |  |  |  |  |  |  |  | IC50 [1, 14]: 1.1 µM; IC50 [1, 15]: 19.1 ± 2.4 µM; IC50 [2, 16]: 19.6 ± 5.2 µM; IC50 [2, 17]: 1.3 ± 0.3 µM; IC50 [3, 18]: < 2 µM |
| CC(C)(C)C[C@H]1N[C@@H](C(=O)NCCN2CC[C@H](O)C2)[C@H](c2cccc(Cl)c2)[C@@]12C(=O)Nc1cc(Cl)c(F)cc12 [MI-519-35] |  |  |  |  |  |  |  |  |  |  | IC50 [1, 14]: 1.4 ± 0.5 µM; IC50 [1, 15]: 6.7 ± 0.9 µM; IC50 [2, 16]: 5.3 ± 0.6 µM; IC50 [2, 17]: 1.8 ± 0.5 µM; IC50 [3, 18]: < 1 µM |
| CC(C)(C)C[C@H]1N[C@@H](C(=O)NCC2CC(O)C(O)C2)[C@H](c2cccc(Cl)c2)[C@@]12C(=O)Nc1cc(Cl)c(F)cc12 (stereo partly shown) [MI-519-36] |  |  |  |  |  |  |  |  |  |  | IC50 [1, 14]: 0.9 ± 0.1 µM; IC50 [1, 15]: 20.6 ± 5.3 µM; IC50 [2, 16]: 29.8 ± 6.5 µM; IC50 [2, 17]: 1.2 ± 0.6 µM; IC50 [3, 18]: < 1 µM |
